In patent publication US12566283B2, “Optical absorbent” (LMS CO., LTD., priority 2022, dated 2026):

Columns and labels:
Format in all cases: physicochemical
[1] = Test Example 1: transmittance of optical absorption film before and after reliability evaluation (85° C., 85% relative humidity, 120 hours); conditions: for Tave 425~465 nm, Δ / Tave 466~480 nm, Δ / Tave 480~560 nm, Δ / Tmin 425~465 nm, Δ / Tmin 466~480 nm, Δ / Λmax Tmax, Δ: change rate 100×(A−B)/B; for Tmin 425~465 nm, B: silicone resin film about 6 μm; for Tmin 425~465 nm, B / Tmin 425~465 nm, A / Tmin 466~480 nm, A / Tmin 466~480 nm, B: minimum transmittance; for Tmin 425~465 nm, B / Tave 425~465 nm, B / Tave 466~480 nm, B / Tave 480~560 nm, B / Tmin 466~480 nm, B: before reliability evaluation; for Tave 425~465 nm, A / Tave 466~480 nm, A / Tave 480~560 nm, A / Tave 425~465 nm, B / Tave 466~480 nm, B / Tave 480~560 nm, B / Tmin 425~465 nm, A / Tmin 466~480 nm, A / Tmin 466~480 nm, B: silicone resin film; for Tave 425~465 nm, A / Tave 466~480 nm, A / Tave 480~560 nm, A / Tave 425~465 nm, B / Tave 466~480 nm, B / Tave 480~560 nm, B: average transmittance; for Tave 425~465 nm, A / Tave 466~480 nm, A / Tave 480~560 nm, A / Tmin 425~465 nm, A / Tmin 466~480 nm, A: after 85° C., 85% relative humidity, 120 hours
Method: 2. Evaluation of Transmittance Spectrum
The transmittance spectrum was measured by using a spectrophotometer (Manufacturer: Perkinelmer Co., Product Name: Lambda 750 Spectrophotometer) for a specimen obtained by cutting the measurement subject (e.g., an optical absorption film) to 10 mm and 10 mm in width and length, respectively. The transmittance spectrum was measured for each wavelength and incident angle according to the manual of the equipment. The specimen was placed on a straight line between the measuring beam and the detector of the spectrophotometer, and the transmittance spectrum was checked while changing the incident angle of the measuring beam from 0° to 40°. Unless specifically stated otherwise, the result of the transmittance spectrum in this embodiment was the result when the incident angle is 0°. The incident angle of 0° is a direction substantially parallel to the direction normal to the surface of the specimen.
The average transmittance within a predetermined wavelength region in the transmittance spectrum was the result of measuring the transmittance of each wavelength while increasing the wavelength by 1 nm from the shortest wavelength in the wavelength region, and then calculating the arithmetic average of the measured transmittance. The maximum transmittance is the maximum one among the transmittance measured while increasing the wavelength by 1 nm. For example, the average transmittance within the wavelength range of 350 nm to 360 nm is the arithmetic average of transmittances measured at wavelengths of 350 nm, 351 nm, 352 nm, 353 nm, 354 nm, 355 nm, 356 nm, 357 nm, 358 nm, 359 nm and 360 nm and the maximum transmittance within the wavelength range of 350 nm to 360 nm is the highest transmittance among transmittances measured at wavelengths of 350 nm, 351 nm, 352 nm, 353 nm, 354 nm, 355 nm, 356 nm, 357 nm, 358 nm, 359 nm and 360 nm.
(§1) A coating solution was prepared by mixing a silicone resin (Dow Chemical, RSN-0217) as a resin component, an optical absorbent, and a solvent (Cyclohexanone). The mixing ratio of the resin component, the optical absorbent and the solvent was 69.3:0.99:29.7 in weight ratio (Resin:Optical Absorbent:Solvent).
(§2) The coating solution was coated on a transparent substrate (a glass substrate manufactured by SCHOTT Co.) and maintained at 140° C. for about 2 hours to form an optical absorption film having a thickness of about 6 μm. The optical absorbent of Embodiment 1, Embodiment 2 or Comparative Example 1 was used as the optical absorbent.
Table 2 below summarizes the transmittance of the optical absorption film before and after reliability evaluation in the ultraviolet and the near infrared regions. The reliability evaluation is an evaluation of the optical absorption film maintained at 85° C. and 85% relative humidity for 120 hours. In Table 2, B means the result before performing the reliability evaluation, and A means the result after performing the reliability evaluation. In addition, in Table 2, Λmax means the transmittance at the absorption maximum.
In Table 2, Δ is the change rate (%) of each characteristic before and after the reliability evaluation and it is a result calculated as 100×(A−B)/B, where A is a numerical value indicated under column A in Table 2, and B is a numerical value indicated under column B in Table 2. In Table 2, Tmax denotes the highest transmittance within a corresponding wavelength range, Tave denotes an average transmittance within a corresponding wavelength range, and Tmin denotes a minimum transmittance within a corresponding wavelength range.

[2] = Test Example 2: absorption maximum of optical absorption film before and after high temperature and high humidity evaluation; conditions: for ΔA: 100×(Af−Ai)/Ai; for Δλ: 100×(λf−λi)/λi; for Ai (transmittance at the absorption maximum wavelength) / λi (absorption maximum wavelength): optical absorption film before being maintained at 85° C.; for Af (transmittance at the absorption maximum wavelength) / λf (absorption maximum wavelength): optical absorption film maintained at 85° C.
Method: as §1, §2
For the optical absorption film prepared in Test Example 1, the absorbance spectrum of the optical absorption film prepared by using the optical absorbent of Embodiment 1 is shown in FIG. 7, the absorbance spectrum of the optical absorption film prepared by using the optical absorbent of Embodiment 2 is shown in FIG. 8, and the absorbance spectrum of the optical absorption film prepared by using the optical absorbent of Comparative Example 1 is shown in FIG. 9. In FIGS. 7 to 9, A-1, A-2, and A-3 indicate evaluations of the optical absorption films of Embodiments 1 and 2 and Comparative Example 1, respectively. […] The high-temperature and high-humidity evaluation is an evaluation where the optical absorption film is maintained at a temperature of 85° C. and under a relative humidity of 85% for 120 hours.
In Table 3, Af is the transmittance at the absorption maximum wavelength of the optical absorption film maintained at 85° C. temperature and under 85% relative humidity for 120 hours, λf is the absorption maximum wavelength at this time, and Ai is the transmittance at the absorption maximum wavelength of the optical absorption film before being maintained at 85° C. temperature and under 85% relative humidity for 120 hours. λi is the absorption maximum wavelength at this time.
In Table 3, ΔA is a value calculated as 100×(Af−Ai)/Ai and Δλ is a value calculated as 100×(λf−λi)/λi.

[3] = Measuring absorption maximum of the optical absorbent in chloroform; conditions: about 10^−5 M
Method: 1. Measuring Absorption Maximum
The absorption maximum was evaluated by a conventional method. Specifically, the sample was dissolved in a chloroform solvent at a concentration of about 10^−5 M and then evaluated by using a measuring instrument (Agilent, Varian Cary 4000).

[4] = Measuring solubility of the optical absorbent in methylene chloride; conditions: room temperature (about 25° C.)
Method: 3. Measuring Solubility The solubility of the optical absorbent was evaluated. Solubility was determined according to the following criteria by evaluating the solubility of the optical absorbent in the solvent (MC, Methylene Chloride) at room temperature (about 25° C.). <Solubility Criteria> • A: When the solubility is 1% by mass or more. • B: When the solubility is 0.5% by mass or more and less than 1% by mass. • C: When the solubility is 0.2% by mass or more and less than 0.5% by mass. • D: When the solubility is less than 0.2% by mass. 4. Pyrolysis Temperature (Td 5%) Analysis

[5] = Pyrolysis temperature (Td 5%) analysis by TGA; conditions: 25° C. to 800° C., 10° C./min, nitrogen 60 cm^3/min
Method: The Td 5% is a value obtained through Thermogravimetric Analysis (TGA). It is a value (Td 5%) at the weight loss of 95% confirmed in a temperature range of 25° C. to 800° C., with a heating rate of 10° C./min and under nitrogen (N2) atmosphere condition of 60 cm^3/min.
Thermogravimetric analysis (TGA) was performed by using TGA N-1000 equipment manufactured by Scinco Co. The analysis was performed by using about 3 mg of the sample (optical absorbent) and the analysis was conducted at a temperature range of 25° C. to 800° C., with a temperature increase rate of 10° C./min, and under 60 cm^3/min of a nitrogen (N2) atmosphere. As for the Td pyrolysis temperature, the value(Td 5%) at 95% weight loss was used.

[6] = 85% relative humidity, 120 hours

| SMILES | Tave 425~465 nm, Δ [1] [%] | Tave 466~480 nm, Δ [1] [%] | Tave 480~560 nm, Δ [1] [%] | Tmin 425~465 nm, Δ [1] [%] | Tmin 466~480 nm, Δ [1] [%] | Λmax Tmax, Δ [1] [%] | Tmin 425~465 nm, B [1] | Tave 425~465 nm, A [1] | Tave 466~480 nm, A [1] | Tave 480~560 nm, A [1] | Tave 425~465 nm, B [1] | Tave 466~480 nm, B [1] | Tave 480~560 nm, B [1] | Tmin 425~465 nm, A [1] | Tmin 466~480 nm, A [1] | Tmin 466~480 nm, B [1] | ΔA [2] [%] | Δλ [2] [%] | Ai (transmittance at the absorption maximum wavelength) [2, 6] [%] | λi (absorption maximum wavelength) [2, 6] [nm] | also measured |
| --- | --- | --- | --- | --- | --- | --- | --- | --- | --- | --- | --- | --- | --- | --- | --- | --- | --- | --- | --- | --- | --- |
| CC1N(CCC[Si](C)(C)C)c2c(cc(C3=C([O-])/C(=c4/cc5c(c6ccccc46)=[N+](CCC[Si](C)(C)C)C(C)C5(C)C)C3=O)c3ccccc23)C1(C)C (stereo not shown) [Embodiment 2] | −0.2 | 0 | −0.1 | −0.3 | 0.1 | 7 | 88.75 | 89.72 | 88.64 | 90.86 | 89.87 | 88.61 | 90.93 | 88.52 | 87.95 | 87.88 | 6.8 | 0 | 8.91 | 765 | Af (transmittance at the absorption maximum wavelength) [2, 6]: 9.52%; λf (absorption maximum wavelength) [2, 6]: 765 nm; Absorption Maximum Wavelength [3]: 772 nm; Absorption Maximum Wavelength ([3]; listed as A2): about 772 nm; Solubility [4]: A (When the solubility is 1% by mass or more); Td 5% (5% pyrolysis temperature) [5]: 260 °C |
| C/C(C1=Nc2ccc([Si](C)(C)C)cc2C1(C)C)=C1/C(=O)C(C(/C)=C2/Nc3ccc([Si](C)(C)C)cc3C2(C)C)=C1O [Comparative Example 1, reference compound] | 0 | −0.1 | −0.1 | 0.3 | −0.1 | 34.7 | 91.35 | 92.03 | 92.07 | 92.27 | 91.99 | 92.14 | 92.32 | 91.62 | 91.76 | 91.84 | 36.7 | 24.4 | 66.3 | 731 | Af (transmittance at the absorption maximum wavelength) [2, 6]: 90.6%; λf (absorption maximum wavelength) [2, 6]: 909 nm; light absorption characteristics before and after high temperature and high humidity ([2]; optical absorption film, 85° C., 85% relative humidity, 120 hours, FIGS. 7 to 9): almost lost; Absorption Maximum Wavelength [3]: 738 nm; Absorption Maximum Wavelength ([3]; listed as A3): about 738 nm; Solubility [4]: A (When the solubility is 1% by mass or more); Td 5% (5% pyrolysis temperature) [5]: 187 °C |
| CC1N(CCC[Si](C)(C)C)c2ccc(C3=C([O-])/C(=c4\ccc5c(c4)C(C)(C)C(C)[N+]=5CCC[Si](C)(C)C)C3=O)cc2C1(C)C (stereo not shown) [Embodiment 1] | −0.3 | −0.1 | −0.1 | −0.2 | 0 | 8.2 | 89.64 | 90.26 | 89.58 | 91.06 | 90.49 | 89.64 | 91.17 | 89.42 | 89.10 | 89.06 | 8.2 | 0 | 6.12 | 658 | Af (transmittance at the absorption maximum wavelength) [2, 6]: 6.62%; λf (absorption maximum wavelength) [2, 6]: 658 nm; Absorption Maximum Wavelength [3]: 652 nm; Absorption Maximum Wavelength ([3]; listed as A1): about 652 nm; Solubility [4]: A (When the solubility is 1% by mass or more); Td 5% (5% pyrolysis temperature) [5]: 247 °C |
